From patent publication US20230265151A1, “GIP/GLP1 CO-AGONIST COMPOUNDS” (priority 2020, published 2023)
Where two headings read alike, the source gives them in different places. *1 amine or outer side, *2 acyl side, *3 side chain or, on linkers, in order; H or OH if unused. Where a SMILES comes first, the peptide text is derived from it. Side-chain parts run from the residue outwards. [ ]: non-standard residue; d: D form. The star is where a group is joined. αMePhe(2-F) = C[C@](N)(Cc1ccccc1F)C(=O)O; γGlu = O=C(O)[C@H](CCC(=O)[*:2])N[*:1]; C14 diacid = O=C(O)CCCCCCCCCCCCC(=O)*; αMeY = C[C@](N)(Cc1ccc(O)cc1)C(=O)O; αMeL = CC(C)C[C@](C)(N)C(=O)O; Orn = NCCC[C@H](N)C(=O)O; AEEA = NCCOCCOCC(=O)O; Aib = CC(C)(N)C(=O)O

Key:
Assay type in all cases: cell-based
hGIPR = target: T1, hGIPR (Homo sapiens, UniProt P48546); assay: Functional cAMP formation (HTRF) in HEK-293 clonal cells expressing hGIPR, 0.1% bovine casein, without or with 1.0% human serum albumin; conditions: for EC50: geometric mean
T1 construct: expressed in transfected cells
T1 sequence (P48546 22-466): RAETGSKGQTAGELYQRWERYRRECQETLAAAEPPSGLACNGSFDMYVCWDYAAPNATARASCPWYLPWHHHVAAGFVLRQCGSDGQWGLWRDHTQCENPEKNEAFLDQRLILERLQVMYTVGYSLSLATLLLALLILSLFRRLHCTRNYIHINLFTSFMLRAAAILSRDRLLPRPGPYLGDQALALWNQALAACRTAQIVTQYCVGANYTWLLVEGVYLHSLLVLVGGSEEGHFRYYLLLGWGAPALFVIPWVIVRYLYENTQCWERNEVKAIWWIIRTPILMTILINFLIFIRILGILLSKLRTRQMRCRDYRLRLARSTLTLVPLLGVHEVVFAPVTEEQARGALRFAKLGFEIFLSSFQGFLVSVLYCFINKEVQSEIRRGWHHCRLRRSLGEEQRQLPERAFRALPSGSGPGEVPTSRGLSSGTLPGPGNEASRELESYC
Summary of the method: (§1)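 Cells were stimulated with peptide for 30 min at 37° C, then intracellular cAMP was measured by competitive HTRF (665/620 nm ratio) and converted to nM using a cAMP standard curve. Relative EC50 and Emax came from four-parameter logistic fits of percent maximal response against peptide concentration.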

hGLP-1R = hGLP-1R (Homo sapiens, UniProt P43220); assay: Functional cAMP formation (HTRF) in HEK-293 clonal cells expressing hGLP-1R, 0.1% bovine casein, without or with 1.0% human serum albumin; design: expressed in transfected cells; conditions: for EC50: cAMP, 0.1% bovine casein (no human serum albumin), geometric mean
Summary of the method: as §1

hGCGR = target: T2, hGCGR (Homo sapiens, UniProt P47871); assay: Functional cAMP formation (HTRF) in HEK-293 clonal cells expressing hGCGR, 0.1% bovine casein, without or with 1.0% human serum albumin
T2 construct: expressed in transfected cells
Summary of the method: as §1

[1] = HEK293, 0.1% bovine casein and 1.0% human serum albumin, 37° C., percent of maximal response to GIP(1-42)NH2, read-out: hGIPR Emax, % ± SEM
[2] = cAMP, incubated at 37° C., 0.1% bovine casein (no human serum albumin), read-out: hGIPR EC50, nM (SEM, n)
[3] = HEK293, 0.1% bovine casein and 1.0% human serum albumin, 37° C., percent of maximal response to GLP-1(7-36)NH2, read-out: hGLP-1R Emax, % ± SEM
[4] = incubated at 37° C., read-out: hGLP-1R EC50, nM (SEM, n)
[5] = 0.1% bovine casein and 1.0% human serum albumin, 37° C., geometric mean, read-out: hGCGR EC50, nM (SEM, n)
[6] = cAMP, incubated at 37° C., 0.1% bovine casein (no human serum albumin), geometric mean, read-out: hGCGR EC50, nM (SEM, n)
[7] = HEK293, percent of maximal response to GIP(1-42)NH2, 37° C., 0.1% bovine casein, arithmetic mean, read-out: hGIPR Emax, % ± SEM

T2 sequence (P47871 26-477): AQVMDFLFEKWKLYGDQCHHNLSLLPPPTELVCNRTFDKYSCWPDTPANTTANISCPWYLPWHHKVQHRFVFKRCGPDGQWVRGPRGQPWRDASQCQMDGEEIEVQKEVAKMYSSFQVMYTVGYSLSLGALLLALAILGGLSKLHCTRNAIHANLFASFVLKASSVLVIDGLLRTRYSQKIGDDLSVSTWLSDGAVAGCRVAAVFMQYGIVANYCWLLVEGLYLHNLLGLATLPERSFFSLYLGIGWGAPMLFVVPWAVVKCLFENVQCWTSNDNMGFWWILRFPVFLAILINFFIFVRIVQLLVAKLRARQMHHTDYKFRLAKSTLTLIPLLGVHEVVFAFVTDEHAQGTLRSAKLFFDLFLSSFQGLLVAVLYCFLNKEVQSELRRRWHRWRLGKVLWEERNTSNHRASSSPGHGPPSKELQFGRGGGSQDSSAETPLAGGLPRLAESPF
hGLP-1R, sequence (P43220 24-463): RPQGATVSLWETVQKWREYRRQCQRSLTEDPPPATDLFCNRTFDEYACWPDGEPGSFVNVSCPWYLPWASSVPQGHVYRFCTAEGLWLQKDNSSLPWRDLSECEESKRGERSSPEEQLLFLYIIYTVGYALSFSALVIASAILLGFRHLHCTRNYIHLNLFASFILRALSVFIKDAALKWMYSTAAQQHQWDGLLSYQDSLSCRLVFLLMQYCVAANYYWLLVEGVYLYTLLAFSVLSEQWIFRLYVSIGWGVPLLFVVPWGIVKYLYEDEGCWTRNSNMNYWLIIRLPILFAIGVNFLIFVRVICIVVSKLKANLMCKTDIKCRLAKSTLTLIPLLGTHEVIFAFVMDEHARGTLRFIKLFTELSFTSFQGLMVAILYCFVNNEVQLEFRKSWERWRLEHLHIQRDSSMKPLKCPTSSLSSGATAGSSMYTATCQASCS

Row | Structure (SMILES) | Emax (hGIPR; [1]) [%] | EC50 (hGIPR; [2]) [nM] | Emax (hGLP-1R; [3]) [%] | EC50 (hGLP-1R; [4]) [nM] | EC50 (hGCGR; [5]) [nM] | EC50 (hGCGR; [6]) [nM] | Emax (hGIPR; [7]) [%] | Emax (hGLP-1R; HEK293, percent of maximal response to GLP-1(7-36)NH2, 37° C., 0.1% bovine casein, arithmetic mean, read-out: hGLP-1R Emax, % ± SEM) [%] | EC50 (hGIPR; 0.1% bovine casein and 1.0% human serum albumin, 37° C., read-out: hGIPR EC50, nM (SEM, n)) [nM] | Emax (hGIPR; HEK293, read-out: hGIPR Emax, % ± SEM, cAMP, 37° C., 0.1% bovine casein and 1.0% human serum albumin, percent of maximal response to GIP(1-42)NH2) [%] | Emax (hGIPR; HEK293, read-out: hGIPR Emax, % ± SEM, cAMP, 37° C., 0.1% bovine casein, percent of maximal response to GIP(1-42)NH2, arithmetic mean) [%] | EC50 (hGIPR; hGIPR EC50, nM (SEM, n), cAMP, 37° C., 0.1% bovine casein (no human serum albumin)) [nM] | Emax (hGLP-1R; HEK293, read-out: hGLP-1R Emax, % ± SEM, cAMP, 37° C., 0.1% bovine casein and 1.0% human serum albumin, percent of maximal response to GLP-1(7-36)NH2) [%] | EC50 (hGLP-1R; hGLP-1R EC50, nM (SEM, n), 37° C.) [nM] | EC50 (hGCGR; hGCGR EC50, nM (SEM, n), cAMP, 37° C., 0.1% bovine casein (no human serum albumin), geometric mean) [nM] | EC50 (hGCGR; hGCGR EC50, nM (SEM, n), cAMP, 37° C., 0.1% bovine casein and 1.0% human serum albumin, geometric mean (SEM, n)) [nM]
1 | CC[C@H](C)[C@H](NC(=O)[C@H](CC(C)C)NC(=O)[C@](C)(Cc1ccc(O)cc1)NC(=O)[C@@H](CCC(=O)O)NC(=O)[C@@H](NC(=O)[C@H](Cc1ccccc1)NC(=O)[C@H](CCC(=O)O)NC(=O)C(C)(C)NC(=O)[C@H](CCC(N)=O)NC(=O)[C@H](C)NC(=O)[C@H](CCCCNC(=O)COCCOCCNC(=O)COCCOCCNC(=O)CC[C@H](NC(=O)CCCCCCCCCCCCC(=O)O)C(=O)O)NC(=O)[C@H](CCCN)NC(=O)[C@H](CC(=O)O)NC(=O)[C@H](CC(C)C)NC(=O)[C@](C)(CC(C)C)NC(=O)[C@@H](NC(=O)C(C)(C)NC(=O)[C@H](Cc1ccc(O)cc1)NC(=O)[C@H](CC(=O)O)NC(=O)[C@H](CO)NC(=O)[C@@H](NC(=O)[C@](C)(Cc1ccccc1F)NC(=O)[C@@H](NC(=O)CNC(=O)[C@H](CCC(=O)O)NC(=O)C(C)(C)NC(=O)[C@@H](N)Cc1ccc(O)cc1)[C@@H](C)O)[C@@H](C)O)[C@@H](C)CC)[C@@H](C)CC)C(=O)N[C@@H](CCC(=O)O)C(=O)NCC(=O)NCC(=O)N1CCC[C@H]1C(=O)N[C@@H](CO)C(=O)N[C@@H](CO)C(=O)NCC(=O)N[C@@H](C)C(=O)N1CCC[C@H]1C(=O)N1CCC[C@H]1C(=O)N1CCC[C@H]1C(=O)N[C@@H](CO)C(=O)N[C@@H](CCCCNC(=O)COCCOCCNC(=O)COCCOCCNC(=O)CC[C@H](NC(=O)CCCCCCCCCCCCC(=O)O)C(=O)O)C(N)=O [Example 232] | 91.5 | 0.0192 | 95.4 | 0.565 | > 9950 | > 9950 | – | – | – | – | – | – | – | – | – | –
2 | CC[C@H](C)[C@H](NC(=O)[C@H](CC(C)C)NC(=O)[C@](C)(Cc1ccc(O)cc1)NC(=O)[C@@H](CCC(=O)O)NC(=O)[C@@H](NC(=O)[C@H](Cc1ccccc1)NC(=O)[C@H](CCC(=O)O)NC(=O)C(C)(C)NC(=O)[C@H](CCC(N)=O)NC(=O)[C@H](C)NC(=O)[C@H](CCCCNC(=O)COCCOCCNC(=O)COCCOCCNC(=O)CC[C@H](NC(=O)CCCCCCCCCCCCC(=O)O)C(=O)O)NC(=O)[C@H](CCCN)NC(=O)[C@H](CC(=O)O)NC(=O)[C@H](CC(C)C)NC(=O)[C@](C)(CC(C)C)NC(=O)[C@@H](NC(=O)[C@@H](NC(=O)[C@H](Cc1ccncc1)NC(=O)[C@H](CC(=O)O)NC(=O)[C@H](CO)NC(=O)[C@@H](NC(=O)[C@](C)(Cc1ccccc1F)NC(=O)[C@@H](NC(=O)CNC(=O)[C@H](CCC(=O)O)NC(=O)C(C)(C)NC(=O)[C@@H](N)Cc1ccc(O)cc1)[C@@H](C)O)[C@@H](C)O)C(C)(C)C)[C@@H](C)CC)[C@@H](C)CC)C(=O)N[C@@H](CCC(=O)O)C(=O)NCC(=O)NCC(=O)N[C@@H](CCCCNC(=O)COCCOCCNC(=O)COCCOCCNC(=O)CC[C@H](NC(=O)CCCCCCCCCCCCC(=O)O)C(=O)O)C(=O)N[C@@H](CO)C(=O)N[C@@H](CO)C(=O)NCC(=O)N[C@@H](C)C(=O)N1CCC[C@H]1C(=O)N1CCC[C@H]1C(=O)N1CCC[C@H]1C(=O)N[C@@H](CO)C(N)=O [Example 202] | 75.3 | – | 109 | – | > 9950 | > 9950 | 86 | 92.2 | – | – | – | – | – | – | – | –
3 | CC[C@H](C)[C@H](NC(=O)[C@H](CC(C)C)NC(=O)[C@](C)(Cc1ccc(O)cc1)NC(=O)[C@@H](CCC(=O)O)NC(=O)[C@@H](NC(=O)[C@H](Cc1ccccc1)NC(=O)[C@H](CCC(=O)O)NC(=O)C(C)(C)NC(=O)[C@H](CCC(N)=O)NC(=O)[C@H](C)NC(=O)[C@H](CCCCNC(=O)COCCOCCNC(=O)COCCOCCNC(=O)CC[C@H](NC(=O)CCCCCCCCCCCCC(=O)O)C(=O)O)NC(=O)[C@H](CCCN)NC(=O)[C@H](CC(=O)O)NC(=O)[C@H](CC(C)C)NC(=O)[C@](C)(CC(C)C)NC(=O)[C@@H](NC(=O)[C@H](CO)NC(=O)[C@H](Cc1ccc(OC)cc1)NC(=O)[C@H](CC(=O)O)NC(=O)[C@H](CO)NC(=O)[C@@H](NC(=O)[C@](C)(Cc1ccccc1F)NC(=O)[C@@H](NC(=O)CNC(=O)[C@H](CCC(=O)O)NC(=O)C(C)(C)NC(=O)[C@@H](N)Cc1ccc(O)cc1)[C@@H](C)O)[C@@H](C)O)[C@@H](C)CC)[C@@H](C)CC)C(=O)N[C@@H](CCC(=O)O)C(=O)NCC(=O)NCC(=O)N[C@@H](CCCCNC(=O)COCCOCCNC(=O)COCCOCCNC(=O)CC[C@H](NC(=O)CCCCCCCCCCCCC(=O)O)C(=O)O)C(=O)N[C@@H](CO)C(=O)N[C@@H](CO)C(=O)NCC(=O)N[C@@H](C)C(=O)N1CCC[C@H]1C(=O)N1CCC[C@H]1C(=O)N1CCC[C@H]1C(=O)N[C@@H](CO)C(N)=O [Example 58] (H-Y[Aib]EGT[αMePhe(2-F)]TSDY(Me)SI[αMeL]LD[Orn]K([AEEA-AEEA-γGlu-C14 diacid])AQ[Aib]EFI[dE][αMeY]LIEGGK([AEEA-AEEA-γGlu-C14 diacid])SSGAPPPS-NH2) | 92.2 ± 7.4 | 0.0158 | – | 0.194 | > 9950 | > 9950 | 89.2 ± 5.96 | – | 1.12 | – | – | – | – | – | – | –
4 | CC[C@H](C)[C@H](NC(=O)[C@H](CCCN)NC(=O)[C@H](CC(=O)O)NC(=O)[C@H](CC(C)C)NC(=O)[C@](C)(CC(C)C)NC(=O)[C@@H](NC(=O)C(C)(C)NC(=O)[C@H](Cc1ccc(O)cc1)NC(=O)[C@H](CC(=O)O)NC(=O)[C@H](CO)NC(=O)[C@@H](NC(=O)[C@](C)(Cc1ccccc1F)NC(=O)[C@@H](NC(=O)CNC(=O)[C@H](CCC(=O)O)NC(=O)C(C)(C)NC(=O)[C@@H](N)Cc1ccc(O)cc1)[C@@H](C)O)[C@@H](C)O)[C@@H](C)CC)C(=O)N[C@@H](C)C(=O)N[C@@H](CCC(N)=O)C(=O)NC(C)(C)C(=O)N[C@@H](CCC(=O)O)C(=O)N[C@@H](Cc1ccccc1)C(=O)N[C@H](C(=O)N[C@@H](CCCCNC(=O)COCCOCCNC(=O)COCCOCCNC(=O)COCCOCCNC(=O)CC[C@H](NC(=O)CCCCCCCCCOc1ccc(C(=O)O)cc1)C(=O)O)C(=O)N[C@@](C)(Cc1ccc(O)cc1)C(=O)N[C@@H](CC(C)C)C(=O)N[C@H](C(=O)N[C@@H](CCCCNC(=O)COCCOCCNC(=O)COCCOCCNC(=O)COCCOCCNC(=O)CC[C@H](NC(=O)CCCCCCCCCOc1ccc(C(=O)O)cc1)C(=O)O)C(=O)NCC(=O)NCC(=O)N1CCC[C@H]1C(=O)N[C@@H](CO)C(=O)N[C@@H](CO)C(=O)NCC(=O)N[C@@H](C)C(=O)N1CCC[C@H]1C(=O)N1CCC[C@H]1C(=O)N1CCC[C@H]1C(=O)N[C@@H](CO)C(N)=O)[C@@H](C)CC)[C@@H](C)CC [Example 346] | – | – | – | – | – | – | – | – | – | 83.9 | 96.6 | 0.0194 | 97.7 | 0.329 | > 9950 | > 9950
